“Also recorded” adds a separate entry of the source.
Tests used:
[1] = target: T1, PTP1B (Homo sapiens, UniProt P18031); assay: PTP1B inhibitory assay (pNPP, spectrocolorimetric); format: biochemical; conditions: pNPP substrate; three independent determinations
T1 sequence (P18031 1-435): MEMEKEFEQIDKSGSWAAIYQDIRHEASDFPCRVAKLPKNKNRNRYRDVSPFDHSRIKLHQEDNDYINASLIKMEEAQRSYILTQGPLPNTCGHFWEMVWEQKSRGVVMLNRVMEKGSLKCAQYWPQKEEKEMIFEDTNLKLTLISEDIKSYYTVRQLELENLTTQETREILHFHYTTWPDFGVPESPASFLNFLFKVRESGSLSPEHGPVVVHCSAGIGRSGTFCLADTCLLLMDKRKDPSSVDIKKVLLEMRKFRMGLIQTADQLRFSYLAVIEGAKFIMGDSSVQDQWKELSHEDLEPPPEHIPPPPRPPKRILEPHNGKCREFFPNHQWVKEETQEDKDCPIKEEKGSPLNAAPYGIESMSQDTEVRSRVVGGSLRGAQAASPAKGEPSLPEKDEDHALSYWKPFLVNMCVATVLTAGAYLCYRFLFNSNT
Description: To test the inhibitory activity of the compounds against PTP1B, a spectrocolorimetric method previously described was employed. The compounds and positive control were dissolved in DMSO or buffer solution [50 mM; Tris-HCI Buffer, pH 6.8], DL-dithiothreitol 1.5 mM, all from Sigma–Aldrich, St. Louis, MO, USA. Aliquots of 0–10 μL of testing compounds (triplicated) were incubated for 10 min at 37 °C with 85 μL of enzyme stock solution (3 μM) in buffer solution. After incubation, 5 μL of the substrate p-nitrophenyl phosphate (pNPP, 0.5 mM, Sigma–Aldrich, St. Louis, MO, USA) were added and incubated a further 25 min at 37 °C; then, the absorbance was recorded at 415 nm.

[2] = target: T1, PTP1B; assay: Enzyme kinetics of PTP1B inhibition; format: biochemical; conditions: for Inhibition Type: best fit of competitive vs non-competitive model, Lineweaver-Burk; for Ki: non-linear regression of saturation curves at fixed inhibitor concentrations
Description: The kinetic studies were carried out under the same conditions described above. Different saturation curves were constructed at fixed inhibitor concentrations. The different inhibitor concentrations were determined based on the previously determined IC50 for each compound. Subsequently, the data obtained were analyzed through a non-linear regression, using OriginPro version 2018 (64-bit) SR1 (Northamton MA, USA, https://www.originlab.com) (accessed on 2 April 2021), adjusting to the following mathematical models:
And non-competitive: y=Vm×s^nh/(1+i/Ki)×S05^nh+(1+i/Ki)×s^nh where Vm is the maximum velocity, S and i are the concentration of substrate and inhibitor, respectively; Ki is the inhibition constant, and nh is the number of Hill.
Additionally, Lineweaver–Burk graphs were constructed to visualize the type of inhibition graphically.

Row | melting point [°C] | IC50 [1] [µM] | Ki [2] [µM] | Inhibition Type ([2]; listed as ursolic acid) | Structure (SMILES) | Inhibition Type [2]
1 | 268 to 271 | 8.3 ± 0.1 |  |  | Cc1ccc2[nH]c3c(c2c1)C[C@@]1(C)C(CC[C@]2(C)C1C(=O)C=C1C4C[C@@](C)(C(=O)O)CC[C@]4(C)CC[C@]12C)C3(C)C (stereo partly drawn) [Compound 4c] | 
2 | 256 to 258 | 10.1 ± 0.21 |  |  | CC1(C)c2[nH]c3ccc(Cl)cc3c2C[C@@]2(C)C1CC[C@]1(C)C2C(=O)C=C2C3C[C@@](C)(C(=O)O)CC[C@]3(C)CC[C@]21C (stereo partly drawn) [Compound 4e] | 
3 | 243 to 245 | 5.1 ± 0.56 |  |  | CC1(C)c2c(cnn2-c2ccccc2)C[C@@]2(C)C1CC[C@]1(C)C2C(=O)C=C2C3C[C@@](C)(C(=O)O)CC[C@]3(C)CC[C@]21C (stereo partly drawn) [Compound 5a] | 
4 |  | 2.5 ± 0.03 | 3.9 ± 0.5 |  | CC1(C(=O)O)CCC2(C)CCC3(C)C(=CC(=O)C4C5(C)Cc6c([nH]c7ccc(C(F)(F)F)cc67)C(C)(C)C5CCC43C)C2C1 (stereo not drawn) [Compound 4f] | non-competitive inhibition; also recorded: non-competitive inhibitors
5 |  |  |  | non-competitive inhibitor | C[C@H]1[C@H](C)CC[C@]2(C(=O)O)CC[C@]3(C)C(=CC[C@@H]4[C@@]5(C)CC[C@H](O)C(C)(C)[C@@H]5CC[C@]43C)[C@H]12 [UA, ursolic acid] | non-competitive inhibition
6 | 245 to 248 | 5.2 ± 0.22 |  |  | CC1(C)c2[nH]c3ccc(F)cc3c2C[C@@]2(C)C1CC[C@]1(C)C2C(=O)C=C2C3C[C@@](C)(C(=O)O)CC[C@]3(C)CC[C@]21C (stereo partly drawn) [Compound 4d] | 
7 | 208 to 211 | 4.8 ± 0.2 |  |  | COc1ccc(-n2ncc3c2C(C)(C)C2CC[C@]4(C)C(C(=O)C=C5C6C[C@@](C)(C(=O)O)CC[C@]6(C)CC[C@]54C)[C@@]2(C)C3)cc1 (stereo partly drawn) [Compound 5b] | 
8 | 270 to 271 | 4.4 ± 0.07 | 4.6 ± 0.6 |  | CC1(C(=O)O)CCC2(C)CCC3(C)C(=CC(=O)C4C5(C)Cc6cnn(-c7ccc(C(F)(F)F)cc7)c6C(C)(C)C5CCC43C)C2C1 (stereo not drawn) [Compound 5f] | non-competitive inhibition; also recorded: non-competitive inhibitors
9 |  | 4.8 ± 0.3 |  |  | Cc1ccc(-n2ncc3c2C(C)(C)C2CC[C@]4(C)C(C(=O)C=C5C6C[C@@](C)(C(=O)O)CC[C@]6(C)CC[C@]54C)[C@@]2(C)C3)cc1 (stereo partly drawn) [Compound 5c] | 
10 | 243 to 244 | 4.3 ± 0.26 |  |  | COc1ccc2[nH]c3c(c2c1)C[C@@]1(C)C(CC[C@]2(C)C1C(=O)C=C1C4C[C@@](C)(C(=O)O)CC[C@]4(C)CC[C@]12C)C3(C)C (stereo partly drawn) [Compound 4b] | 
11 |  | 69.7 ± 6.98 |  |  | CC1(C)[C@@H](OC(=O)CCC(=O)O)CC[C@]2(C)[C@H]3C(=O)C=C4[C@@H]5C[C@@](C)(C(=O)O)CC[C@]5(C)CC[C@@]4(C)[C@]3(C)CC[C@@H]12 [CA, carbenoxolone, reference compound] | 
12 |  |  |  |  | Cc1ccc(C(=O)Nc2ccc(S(=O)(=O)O)c3cc(S(=O)(=O)O)cc(S(=O)(=O)O)c23)cc1NC(=O)c1cccc(NC(=O)Nc2cccc(C(=O)Nc3cc(C(=O)Nc4ccc(S(=O)(=O)O)c5cc(S(=O)(=O)O)cc(S(=O)(=O)O)c45)ccc3C)c2)c1 [SU, suramin] | competitive inhibition; also recorded: competitive inhibitor
13 | 263 to 266 | 7.5 ± 0.22 |  |  | CC1(C)c2c(cnn2-c2ccc(Cl)cc2)C[C@@]2(C)C1CC[C@]1(C)C2C(=O)C=C2C3C[C@@](C)(C(=O)O)CC[C@]3(C)CC[C@]21C (stereo partly drawn) [Compound 5e] | 
14 | 245 to 248 | 6.6 ± 0.13 |  |  | CC1(C)c2[nH]c3ccccc3c2C[C@@]2(C)C1CC[C@]1(C)C2C(=O)C=C2C3C[C@@](C)(C(=O)O)CC[C@]3(C)CC[C@]21C (stereo partly drawn) [Compound 4a] | 
15 | 260 to 264 | 9.6 ± 0.2 |  |  | CC1(C)c2c(cnn2-c2ccc(F)cc2)C[C@@]2(C)C1CC[C@]1(C)C2C(=O)C=C2C3C[C@@](C)(C(=O)O)CC[C@]3(C)CC[C@]21C (stereo partly drawn) [Compound 5d] | 

Row | Structure (SMILES) | melting point [°C] | IC50 [1] [µM] | Ki [2] [µM] | Inhibition Type ([2]; listed as ursolic acid) | Inhibition Type [2]
16 | CC(C)CCC[C@@H](C)[C@H]1CC[C@H]2[C@@H]3C[C@@H](NCCCNCCCCNCCCN)[C@H]4C[C@@H](O)CC[C@]4(C)[C@H]3CC[C@]12C [CL, claramine] |  | 13.7 ± 0.11 | 15.4 ± 1.7 |  | non-competitive inhibition

From paper PMC8308021, “Indole- and Pyrazole-Glycyrrhetinic Acid Derivatives as PTP1B Inhibitors: Synthesis, In Vitro and In Silico Studies” (Molecules, 2021)
